In US8796320B2, “1,3,4-Oxadiazole-2-carboxamide compound” (General Incorporated Association Pharma Valley Project …, priority 2009, dated 2014) one finds inhibition and IC50 data, which are given here for 23 compounds.

Where a name gives a salt, the structure may show the parent alone.

Common to all, as to assay type: cell-based
One test relates to STAT3. The experiment in a line: STAT3 transcription inhibition test (reporter gene method). The following applies: Homo sapiens; compound at 100 μM; STAT3 reporter HeLa stable cell line, oncostatin M 10 ng/mL, 4 hours; read-out: STAT3 transcription inhibitory activity (%). Here is the method:
The inhibition of STAT3 transcription was evaluated by using STAT3 reporter HeLa stable cell line (Panomics Inc., catalog No. RC0003), a cell line for the reporter gene method, and performing the following method according to the appendix included therein.
STAT3, reporter HeLa stable cell line subcultured and maintained in a Dulbecco's modified Eagle's medium (DMEM) containing 10% fetal bovine serum, 100 units/mL penicillin, and 100 μg/mL streptomycin was inoculated at a concentration of 40000 cells/well to a 96-well plate (white) and attached to the plate by overnight incubation at 37° C. under 5% CO2. After addition of each evaluation compound adjusted to various concentrations (adjusted with a DMSO solution), the cells were precultured for 1 hour. Then, oncostatin M for activating STAT3 was added at a final concentration 10 ng/mL, and the cells were further cultured at 37° C. under 5% CO2 for 4 hours. Luciferase activity derived from the cells was determined using Steady-Glo Luciferase Assay System (Promega Corp.), and STAT3 transcriptional activity scores were calculated according to the following formula: STAT3 transcriptional activity score (%)=100×(Lchem−L0)/(LDMSO−L0) • L0: luminescence intensity obtained without stimulation with oncostatin M • Lchem: luminescence intensity obtained by the addition of a test sample • LDMSO: luminescence intensity obtained by the addition of only a solvent for dissolving a test sample
The test results were indicated in the rate of inhibition of STAT3 transcription by each compound at a concentration of 100 μM.
(In general: A reporter such as luciferase makes a cellular process visible.)

The test system of test [1] is Human lymphoma SCC-3 cells. Nature of the test: SCC-3 cell growth inhibition test (MTT method). The following applies: 72-hour culture. The procedure: Human lymphoma SCC-3 cells purchased from Japan Health Sciences Foundation were cultured for […] at a density of 5000 cells/well in a 96-well plate with RPMI1640 (Sigma-Aldrich Corp.) containing 10% fetal bovine serum (FBS; GIBCO) as a culture medium.
Simultaneously with cell inoculation, each test compound diluted to various concentrations with an RPMI medium was added to each well. After 72-hour culture, cell growth inhibitory activity was determined by the MTT method (J. Immunol. Methods, 1993, 65, 581-593) using a microplate reader (NJ-2300, BioTek Instruments, Inc.).
The test results were indicated in a concentration (IC50) at which 50% cell growth was inhibited.
(Formazan colour is commonly taken as a measure of viable cells.)

Another test deals with MDA-MB-468. The experiment in a line: MDA-MB-468 cell growth inhibitory activity. To be noted: Homo sapiens; compound at 20 μM; MDA-MB-468, 72 hours. Here is the method: MDA-MB-468 diluted with phenol red-free DMEM/F-12 (GIBCO; 10% FBS, 20 units/ml penicillin/streptomycin) was inoculated at a concentration of 2000 cells/well to a 96-well plate (Greiner Bio-One) and cultured overnight at 37° C. in the presence of 5% CO2. Then, a test sample solution (containing 2 (v/v)% DMSO) adjusted to 10 μM was added thereto at a concentration of 10 μL/well and contacted with the cells at 37° C. for 72 hours in the presence of 5% CO2. Each well was washed three times with a medium. Then, after addition of 100 μL/well of a medium and 20 μL/well of CellTiter 96 AQueous, One Solution Reagent (Promega Corp.), the cells were incubated at 37° C. for 2 hours in the presence of 5% CO2. Absorbance at 495 nm was measured using Multiplate reader (Molecular Devices, Inc.), and the rate of inhibition of cell growth was calculated according to the following formula: Rate of inhibition of cell growth (%)=100−100×(Abschem−bkgd)/(AbsDMSO−bkgd) • Abschem: absorbance obtained by the addition of a test sample • AbsDMSO: absorbance obtained by the addition of only a solvent for test sample dissolution • bkgd: absorbance obtained by the addition of CellTiter 96 AQueous One Solution Reagent to a medium for cell culture
The test results were indicated in the rate of inhibition of cell growth by each compound at a concentration of 20 μM.

What is called IC50 is the point on the concentration scale where inhibition reaches its midpoint. A higher IC50 goes with lower potency. On to `O=C(Nc1nnc(-c2ccco2)o1)c1cccc(-c2ccc(Cl)cc2)c1` [Compound Ia-11, 4′-Chloro-N-[5-(2-furyl)-1,3,4-oxadiazol-2-yl]-3-biphenylcarboxamide], for which the inhibition at 100 µM in the test on STAT3 is 67%. In addition, half-maximal inhibition in test [1] (IC50) required 1800 nM.
For the compound `C=Cc1ccc(-c2cccc(C(=O)Nc3nnc(-c4ccco4)o3)c2)cc1` [Compound Ia-13, N-[5-(2-Furyl)-1,3,4-oxadiazol-2-yl]-4′-vinyl-3-biphenylcarboxamide], the inhibition at 100 µM in the test on STAT3 was determined as 67%. The IC50 in test [1] was 1000 nM.
`O=Cc1ccc(-c2cccc(C(=O)Nc3nnc(-c4ccco4)o3)c2)cc1` [Compound Ia-17, 4′-Formyl-N-[5-(2-furyl)-1,3,4-oxadiazol-2-yl]-3-biphenylcarboxamide] had an inhibition at 20 µM with MDA-MB-468 of 54%. In addition, the inhibition at 100 µM in the test with STAT3 was over 100%. The compound further returned an IC50 in test [1] of 4000 nM.
For the compound `CC(=O)c1ccc(-c2cccc(C(=O)Nc3nnc(-c4ccco4)o3)c2)cc1` [Compound Ia-18, 4′-Acetyl-N-[5-(2-furyl)-1,3,4-oxadiazol-2-yl]-3-biphenylcarboxamide], the inhibition at 100 µM with STAT3 is 71%. Moreover, it took 1900 nM to reach half-maximal inhibition in test [1] (IC50).
In turn, `N#Cc1ccc(-c2cccc(C(=O)Nc3nnc(-c4ccco4)o3)c2)cc1` [Compound Ia-21, 4′-Cyano-N-[5-(2-furyl)-1,3,4-oxadiazol-2-yl]-3-biphenylcarboxamide] displayed an inhibition at 20 µM in the test on MDA-MB-468 of 91%. Besides, in the test with STAT3, the inhibition at 100 µM worked out at 62%. In addition, in test [1], the IC50 is 1700 nM.
Consider `NS(=O)(=O)c1ccc(-c2cccc(C(=O)Nc3nnc(-c4ccco4)o3)c2)cc1` [Compound Ia-25, N-[5-(2-Furyl)-1,3,4-oxadiazol-2-yl]-4′-sulfamoyl-3-biphenylcarboxamide], for which the inhibition at 100 µM in the test with STAT3 turned out to be 70%. Moreover, the IC50 in test [1] was found to be 53000 nM.
For `Cn1ccc2ccc(-c3cccc(C(=O)Nc4nnc(-c5ccco5)o4)c3)cc21` [Compound Ia-43, N-[5-(2-Furyl)-1,3,4-oxadiazol-2-yl]-3-(1-methyl-6-indolyl)benzenecarboxamide], in that order: 74% and 1800 nM.
For `CN1CCc2cc(-c3cccc(C(=O)Nc4nnc(-c5ccco5)o4)c3)ccc21` [Compound Ia-44, N-[5-(2-Furyl)-1,3,4-oxadiazol-2-yl]-3-(1-methyl-5-indolinyl)benzenecarboxamide], the inhibition at 100 µM with STAT3 came to 58%. In test [1], this compound came in with an IC50 of 1800 nM.
The compound `Cn1ccc2cc(-c3cccc(C(=O)Nc4nnc(-c5ccco5)o4)c3)ccc21` [Compound Ia-50, N-[5-(2-Furyl)-1,3,4-oxadiazol-2-yl]-3-(1-methyl-5-indolyl)benzenecarboxamide] had an inhibition at 20 µM in the test with MDA-MB-468 of 51%. For the same compound, the inhibition at 100 µM with STAT3 is over 100%. In test [1], this compound returned an IC50 of 1100 nM.
For `O=C(Nc1nnc(-c2ccco2)o1)c1cccc(-c2ccc(-c3ccccc3)c(F)c2)c1` [Compound Ia-76, 3′-Fluoro-N-[5-(2-furyl)-1,3,4-oxadiazol-2-yl]-3-(p-terphenyl)carboxamide], in that order: 72%, 69% and 200 nM.
For `CCc1ccc(-c2ccc(-c3cccc(C(=O)Nc4nnc(-c5ccco5)o4)c3)cc2)cc1` [Compound Ia-78, 4″-Ethyl-N-[5-(2-Furyl)-1,3,4-oxadiazol-2-yl]-3-(p-terphenyl)carboxamide], in that order: 64%, 70% and under 100 nM.
In the test on MDA-MB-468, `CC(C)Oc1ccc(-c2ccc(-c3cccc(C(=O)Nc4nnc(-c5ccco5)o4)c3)cc2)cc1` [Compound Ia-81, N-[5-(2-Furyl)-1,3,4-oxadiazol-2-yl]-4″-isopropoxy-3-(p-terphenyl)carboxamide] returned an inhibition at 20 µM of 78%. Also, the inhibition at 100 µM in the test on STAT3 came to 63%.
In turn, `O=C(Nc1nnc(-c2ccco2)o1)c1cccc(-c2ccc(-c3cccc4ccccc34)cc2)c1` [Compound Ia-82, N-[5-(2-Furyl)-1,3,4-oxadiazol-2-yl]-4′-(1-naphthyl)-3-biphenylcarboxamide] had an inhibition at 20 µM in the test with MDA-MB-468 of 75%. In the test with STAT3, the inhibition at 100 µM stood at 54%.
Turning to `O=C(Nc1nnc(-c2ccco2)o1)c1cccc(-c2ccc(N3CCOCC3)cc2)c1` [Compound Ia-87, N-[5-(2-Furyl)-1,3,4-oxadiazol-2-yl]-4′-morpholino-3-biphenylcarboxamide formate], in the test on STAT3, the inhibition at 100 µM was determined as 92%. The half-inhibitory concentration (IC50) in test [1] stood at 600 nM.
With `O=C(Nc1nnc(-c2ccco2)o1)c1cccc(-c2cnc3ccccc3c2)c1` [Compound Ia-99, N-[5-(2-Furyl)-1,3,4-oxadiazol-2-yl]-3-(3-quinolyl)benzenecarboxamide], the inhibition at 20 µM with MDA-MB-468 is 55%. Also, the inhibition at 100 µM in the test with STAT3 stood at 78%.
Take `O=C(Nc1nnc(-c2ccco2)o1)c1cc(-c2cccc(Cl)c2)nc2nc(N3CCCCC3)sc12` [Compound Ib-2, 5-(3-Chlorophenyl)-N-[5-(2-furyl)-1,3,4-oxadiazol-2-yl]-2-piperidino-7-thiazolo[4,5-b]pyridinecarboxamide]: the inhibition at 20 µM in the test with MDA-MB-468 is over 100%. In the test with STAT3, the inhibition at 100 µM is 68%.
For `Cc1ccc(-c2cc(C(=O)Nc3nnc(-c4ccco4)o3)c3sc(N4CCCCC4)nc3n2)cc1` [Compound Ib-3, N-[5-(2-Furyl)-1,3,4-oxadiazol-2-yl]-5-(4-methylphenyl)-2-piperidino-7-thiazolo[4,5-b]pyridinecarboxamide], in that order: over 100% and over 100%.
For `O=C(Nc1nnc(-c2ccsc2)o1)c1cc(-c2ccccc2)nc2nc(N3CCCCC3)sc12` [Compound Ib-19, 5-Phenyl-2-piperidino-N-[5-(3-thienyl)-1,3,4-oxadiazol-2-yl]-7-thiazolo[4,5-b]pyridinecarboxamide], in that order: 83% and 90%.
As for `O=C(Nc1nnc(-c2ccco2)o1)c1cc(-c2cccs2)nc2nc(N3CCCC3)sc12` [Compound Ib-26, N-[5-(2-Furyl)-1,3,4-oxadiazol-2-yl]-2-(1-pyrrolidinyl)-5-(2-thienyl)-7-thiazolo[4,5-b]pyridinecarboxamide], the inhibition at 20 µM in the test on MDA-MB-468 amounted to 76%. Moreover, the inhibition at 100 µM in the test with STAT3 was 60%.
In the test with MDA-MB-468, `O=C(Nc1nnc(-c2ccco2)o1)c1cc(-c2cccs2)nc2nc(N3CCCCC3)sc12` [Compound Ib-27, N-[5-(2-Furyl)-1,3,4-oxadiazol-2-yl]-2-piperidino-5-(2-thienyl)-7-thiazolo[4,5-b]pyridinecarboxamide] registered an inhibition at 20 µM of 82%. In addition, the inhibition at 100 µM in the test on STAT3 was 67%.
On to `O=C(Nc1nnc(-c2ccco2)o1)c1cc(-c2ccccc2)nc2nc(N3CCSCC3)sc12` [Compound Ib-30, N-[5-(2-Furyl)-1,3,4-oxadiazol-2-yl]-5-phenyl-2-(4-thiomorpholinyl)-7-thiazolo[4,5-b]pyridinecarboxamide], for which the inhibition at 20 µM in the test on MDA-MB-468 is 84%. In addition, the inhibition at 100 µM with STAT3 is over 100%.
For `O=C(Nc1nnc(-c2ccco2)o1)c1cc(-c2ccccc2)nc2nc(N3CCC(F)(F)CC3)sc12` [Compound Ib-32, 2-(4,4-Difluoropiperidino)-N-[5-(2-furyl)-1,3,4-oxadiazol-2-yl]-5-phenyl-7-thiazolo[4,5-b]pyridinecarboxamide], in that order: 86% and 80%.
`COc1cc([N+](=O)[O-])ccc1-c1ccc(C(=O)Nc2nnc(-c3ccco3)o2)o1` [Compound Ic-18, N-[5-(2-Furyl)-1,3,4-oxadiazol-2-yl]-5-(2-methoxy-4-nitrophenyl)-2-furancarboxamide] showed an inhibition at 20 µM in the test on MDA-MB-468 of 76%. The same compound registered an IC50 in test [1] of 16000 nM.
